{"source": "patent US10822325B2", "about": "“Human GLUT5 specific inhibitors and methods of treatment” (UNM RAINFOREST INNOVATIONS, priority 2015, dated 2020)", "biological_target": "T1, human GLUT5 (Homo sapiens, UniProt P22732)", "T1 construct": "Full length DNA was subcloned into pFastBac1 (Life Technologies) vector with a N-terminal hexahistidine tag; hexahistidine (N); made in house; host or cells: Sf21 insect cells (baculovirus, pFastBac1)", "T1 sequence (P22732 1-501)": "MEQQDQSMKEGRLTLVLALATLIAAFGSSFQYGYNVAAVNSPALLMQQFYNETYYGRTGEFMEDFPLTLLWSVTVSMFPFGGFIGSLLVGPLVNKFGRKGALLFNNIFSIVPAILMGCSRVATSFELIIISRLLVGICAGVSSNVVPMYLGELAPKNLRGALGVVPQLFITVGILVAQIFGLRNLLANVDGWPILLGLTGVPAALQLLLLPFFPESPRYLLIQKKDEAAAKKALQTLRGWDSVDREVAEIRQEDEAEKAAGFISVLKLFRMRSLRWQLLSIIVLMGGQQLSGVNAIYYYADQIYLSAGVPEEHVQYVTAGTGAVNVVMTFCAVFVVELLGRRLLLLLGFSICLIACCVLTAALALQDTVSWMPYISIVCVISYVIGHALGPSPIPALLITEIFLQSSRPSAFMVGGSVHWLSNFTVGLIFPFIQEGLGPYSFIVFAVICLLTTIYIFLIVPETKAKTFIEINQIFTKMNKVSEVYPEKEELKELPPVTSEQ", "assay": "Fructose entrance counter-flow transport in GLUT5 proteoliposomes", "type": "biochemical", "conditions": "for effect on GLUT5 fructose transport: 2 mM compound, one minute", "description": "cDNAs of GLUT1, 3, 4 and 5 were purchased from Open Biosystems (GE Healthcare). cDNAs of GLUT2 was a gift from Prof. Graeme Bell at University of Chicago. Full length DNA was subcloned into pFastBac1 (Life Technologies) vector with a N-terminal hexahistidine tag. Bacmids were generated in DH10Bac E. coli cells (Life Technologies). Baculoviruses were produced using Cellfectin II Reagent and amplified in Sf21 insect cells (Life Technologies). Cells were maintained at 26° C., and P1 (10^6 pfu/mL) was collected from infected cells after 72 hours. SF21 cells were propagated in HyClone SFX-Insect media (GE Healthcare), supplemented with 5% fetal bovine serum (Biowest), 4.8 mM glutamine, antibiotics (100 units/mL Penicillin G and 100 μg/mL streptomycin sulfate) and amphotericin B (2.5 μg/mL). For recombinant protein expression, SF21 cells in suspension culture at 2×10^6 cells/ml were infected with P3 viral stock (10^8 pfu/mL), at an MOI of 1.0 pfu/cell. Four days after viral infection, cells from 1 L culture were collected by centrifugation at 2,000 g and 25 °C. The cell pellet was resuspended in 120 mL of 50 mM sodium phosphate (NaPi) (pH 7.5), 5% (v/v) glycerol, 200 mM sodium chloride (buffer A), with protease inhibitors (1 mM AEBSF, 10 μM E-64, 10 μM pepstatin A, 1 μM Aprotinin, 20 μM Bestatin, 20 μM Leupeptin), at 4° C., and disrupted by sonication (Branson Ultrasonic). n-Dodecyl-β-D-maltopyranoside (DDM, EMD chemicals) was added to a final concentration of 1% (w/v) in the broken cell solution, and the mixture was incubated at 4° C. with stirring, for 4 hours. The solubilized protein solution was clarified by ultracentrifugation at 200,000 g and 4° C. for 1 hour, and the supernatant was loaded onto the Ni-NTA resin (Novagen) and washed with buffer containing 50 mM NaPi (pH 7.5), 500 mM NaCl, 5-20 mM imidazole, 5% (v/v) glycerol and 0.05% (w/v) DDM. GLUT1 (or GLUT2-5, wild-type or mutants) was eluted with buffer A, containing 300 mM imidazole and 0.05% DDM (w/v). To generate DNA for mutant proteins, site-directed mutagenesis was performed on the pFastBac1 plasmid constructs of wild-type proteins and verified by DNA sequencing^37. Mutant proteins were expressed and purified in the same manner as wild-type proteins with no modifications.\nProteoliposomes were generated according to the protocol of^16,38 with minor modifications. Liposomes were made from a 95%/5% mix of soy phosphatidylcholine and cholesterol (Avanti Polar Lipids). Prepared liposomes were destabilized with 4 mM Triton X-100 and mixed with purified protein in a 100:1 (w/w) ratio in 100 mM KPi (pH 7.5), 20% (v/v) glycerol, 200 mM glucose for GLUT1-4 and GLUT1F379H or fructose for GLUT5 (wild-type and H387F mutant) and GLUT2. Detergent was removed by several additions of SM2 BioBeads (BioRad) and incubated overnight at 4° C. […]\nFor the entrance counterflow transport in proteoliposomes, the assay was started by the addition of 5 μL proteoliposomes solution (OD600 nm ˜30) to 200 μL, assay solution, containing 10 μM ^14C-radiolabeled glucose (for GLUT1 wild-type or F379H mutant and GLUT2-4) or fructose (for GLUT5 wild-type or H387F mutant and GLUT2) (Moravek Biochemicals) in 100 mM KPi buffer at pH 7.5. After one minute (or different specified time points when the time-dependent counter-flow transport activity was measured), the transport was stopped with ice-chilled quench buffer [0.1 M KPi (pH 5.5) and 0.1 M lithium chloride]. […]", "note": "Entries after “also recorded” stand apart in the source; their conditions may differ."}
{"smiles": "C=C1[C@@H](C)[C@H]2[C@H](Cc3ccccc3)NC(=O)[C@]23OC(=O)/C=C/[C@H](O)CCC[C@@H](C)C/C=C/[C@H]3[C@@H]1O", "note": "[cytochalasin B, reference compound]", "values": [{"measurement": "effect on GLUT5 fructose transport", "setting": "proteoliposomes", "value": "did not alter"}]}
{"smiles": "O=C(CCc1ccc(O)cc1)c1c(O)cc(O)cc1O", "note": "[phloretin, reference compound]", "values": [{"measurement": "effect on GLUT5 fructose transport", "setting": "proteoliposomes", "value": "did not alter"}]}
{"smiles": "CS(=O)(=O)c1ccc(Nc2ccc3c(c2)OCO3)c([N+](=O)[O-])c1", "note": "[MSNBA, N-[4-(methylsulfonyl)-2-nitrophenyl]-1,3-benzodioxol-5-amine]", "values": [{"measurement": "inhibitory activity against GLUT5 in screen of 175 purchased compounds", "setting": "1 mM compound, fructose transport in proteoliposomes", "value": "inhibitor of GLUT5; also recorded: inhibitory activity"}, {"measurement": "effect on GLUT5 fructose transport", "setting": "proteoliposomes", "value": "completely abolished"}, {"measurement": "IC50", "setting": "proteoliposomes, 10 μM C14-fructose, measured one minute after transport initiation, read-out: IC50 of inhibition of GLUT5 fructose transport", "value": "100 ± 30", "unit": "µM"}]}
